Data as given in PubChem BioAssay (NCI).
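Cultured in 96-well plates, cells were exposed to test compound for 48 hours across five concentrations. The concentration for 50% growth inhibition is given as GI50. TGI denotes the concentration required for complete inhibition of growth.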

How the values were obtained:
Assay in all cases: NCI-60 cell line screen, 48 h
[1] = tested on: NCI/ADR-RES ovarian
[2] = tested on: COLO 205 colon
[3] = tested on: SF-295 CNS
[4] = tested on: SF-268 CNS
[5] = tested on: NCI-H23 lung
[6] = tested on: SNB-75 CNS
[7] = tested on: U251 CNS
[8] = tested on: SF-539 CNS
[9] = tested on: HOP-62 NSCLC
[10] = tested on: NCI-H226 lung

Compound | TGI [1] [µM] | TGI [2] [µM] | TGI [3] [µM] | TGI [4] [µM] | TGI [5] [µM] | TGI [6] [µM] | TGI [7] [µM] | TGI [8] [µM] | TGI [9] [µM] | TGI [10] [µM] | GI50 [1] [µM] | GI50 [2] [µM] | GI50 [3] [µM] | GI50 [4] [µM] | GI50 [6] [µM] | GI50 [10] [µM]
Cc1nc2nnc(CCCCCCCCc3nnc4nc(C)[nH]n34)n2[nH]1 | > 100 | > 100 | > 100 | > 100 | > 100 | > 100 | > 100 | > 100 | > 100 | > 100 |  |  |  |  |  | 
COc1ccc2nc(-c3ccc(N)cc3)sc2c1 | > 100 | > 100 | > 100 | > 100 | > 100 | > 100 | > 100 | > 100 | > 100 | > 100 |  |  |  |  |  | 
COC(OC)c1cccc2c1C(=O)CCC1(CC2)OCCCCO1 |  | > 100 | > 100 | > 100 | > 100 | > 100 | > 100 | > 100 | > 100 | > 100 |  |  |  |  |  | 
O=[N+]([O-])c1ccc(CSC2=C(c3ccc(Cl)cc3)S/C(=C3\SC(SCc4ccc([N+](=O)[O-])cc4)=C(c4ccc(Cl)cc4)S3)S2)cc1 | > 100 | > 100 | > 100 | > 100 | > 100 |  | > 100 | > 100 | > 100 | > 100 |  |  |  |  |  | 
Cc1cc2c3ccccc3n3c2c2c1OC1(C)CCC(C2C1)C3(C)C (stereo not given) |  | > 25 |  | > 25 |  |  | > 25 | > 25 | > 25 | > 25 |  |  |  |  |  | 
CCn1c(=O)c2nc(SC)sc2n(-c2ccccc2)c1=S | > 100 |  | > 100 | > 100 | > 100 | > 100 | > 100 | > 100 | > 100 | > 100 |  |  |  |  |  | 
C#C[C@]1(O)CC[C@H]2[C@@H]3CCC4=C/C(=N/OC(=O)c5cccc6cc7ccccc7nc56)CC[C@@H]4[C@H]3CC[C@@]21CC | > 100 | > 100 |  | > 100 | > 100 | > 100 | > 100 | > 100 | > 100 | > 100 |  |  |  |  |  | 
CSC(SC)=C(C#N)C(=O)Nc1ccc(Cl)cc1 | > 100 | 35.9 |  | > 100 | > 100 | > 100 | > 100 | 67.7 |  | 85.9 |  |  |  |  |  | 
C/C(=C\COP(=O)(O)OP(=O)(O)O)CC/C=C(\C)CNc1c(F)c(F)c(F)c(F)c1F | > 100 | > 100 | > 100 | > 100 | > 100 | > 31.6 | > 100 | > 100 | > 100 | > 100 |  |  |  |  |  | 
C[N+]1(CC[N+]2(C)CCCC2c2cccnc2)CCCC1c1cccnc1 (stereo not given) | > 100 | > 100 | > 100 | > 100 | > 100 | > 100 | > 100 | > 100 | > 100 |  |  |  |  |  |  | 
Cc1ccc2c(c1)CC1(Cc3cc(C)ccc3C1=O)C2=O | > 100 |  | > 100 | > 100 | > 100 | > 100 | > 100 | > 100 | > 100 |  |  |  |  |  |  | 
Cc1cccc(NC(=S)NNC(=O)c2cc(-c3ccccc3)nc3ccccc23)c1 | > 100 | 40.1 |  | > 100 | 84.8 | > 100 | 89.9 | 58.9 | 99.3 | > 100 |  |  |  |  |  | 
CN(C)CCCn1c(-c2ccc(Br)cc2)csc1=Nc1ccccc1 | 35.7 |  | 25.4 | 33.6 | 27.8 | 29.8 | > 100 | 34 | 26.4 | 27.3 |  |  |  |  |  | 
NC1=Nc2ncccc2C(=O)NN1 |  |  | > 10 | > 10 | > 10 | > 10 | > 10 | > 10 | > 10 | > 10 |  |  |  |  |  | 
CCOC(=O)c1c(NS(=O)(=O)c2ccccc2)sc2c1CCCC2 | > 100 | > 100 | > 100 | > 100 | > 100 | > 100 |  | > 100 | > 100 | > 100 |  |  |  |  |  | 
COc1cccc(C2c3cc4c(cc3OC(NNS(=O)(=O)c3ccc(C)cc3)C2C)OCO4)c1O (stereo not given) |  | 34.2 | 94.6 | > 100 | > 100 | 40.7 | > 100 | 51.8 | 53 | > 100 |  |  |  |  |  | 
C=CC[PH+](c1ccccc1)c1ccccc1.C=CC[PH+](c1ccccc1)c1ccccc1.[Pt+2].[S-]c1nc2ccccc2[nH]1.[S-]c1nc2ccccc2[nH]1 | > 100 | 6.56 | 8.44 | > 100 |  | 3.89 |  |  |  | 4.48 | 47.1 | 2.02 | 2.82 | 2.77 | 1.2 | 1.95
O=C(OC[C@H]1C[C@H]2C(=O)OCCC[C@H]2O1)c1ccccc1 | > 100 | > 100 | > 100 | > 100 | > 100 | > 100 | > 100 |  | > 100 | > 100 |  |  |  |  |  | 
Cc1cc2nc3c(N)nn(CCCN(C)C)c3nc2cc1C | > 100 | > 100 | > 100 | > 100 | > 100 | > 100 | > 100 | > 100 | > 100 |  |  |  |  |  |  | 
Cc1ccc([N+](=O)[O-])cc1S(=O)(=O)Nc1ccc(C2=NN(S(=O)(=O)c3cc([N+](=O)[O-])ccc3C)C(c3ccccc3O)C2)cc1 (stereo not given) | > 100 | > 100 | > 100 | > 100 | > 100 | > 100 | > 100 |  | > 100 | > 100 |  |  |  |  |  | 
CCN(CC)C(=O)N[C@@H](CC(C)C)C(=O)NC | > 100 | > 100 | > 100 | > 100 | > 100 | > 100 | > 100 |  | > 100 |  |  |  |  |  |  | 
CCCOC(=O)CCC(NC(=O)c1ccc(Nc2nc3ccccc3nc2-c2cccs2)cc1)C(=O)OCCC (stereo not given) |  | > 100 | > 100 | > 100 | > 100 |  | > 100 | > 100 | > 100 | > 100 |  |  |  |  |  | 
Cc1c(CCCl)c(Cl)n2c(nc3ccccc32)c1C#N |  | 2.47 | 4.34 | 11.5 | 2.37 | 14.1 | 2.34 | 2.81 | 4.8 | 2.93 |  |  |  |  |  | 
